Laboratory results: patent US10611730B2, “Benzimidazolone and benzothiazolone compounds and their use as AMPA receptor modulators” (Janssen Pharmaceutica NV, priority 2015, dated 2020)

How the values were obtained:
[1] = tested on: endogenous γ 8-containing AMPA receptor currents; experiment: Whole-cell electrophysiology on acutely-dissociated mouse hippocampal neurons; type: cell-based; details: 10 mM glutamate, 500 ms, held at −60 mV
Method: The effects of selected compounds upon endogenous γ 8-containing AMPA receptor currents was evaluated using whole-cell electrophysiology on acutely-dissociated mouse hippocampal neurons. Hippocampus was chosen for this assay, since CACNG8 (the protein encoded by this gene is a type I transmembrane AMPA receptor regulatory protein i.e., TARP) is preferentially enriched in this brain region (Tomita et al. (2003). “Functional studies and distribution define a family of transmembrane AMPA receptor regulatory proteins.” J Cell Biol 161(4): 805-816.2003).
Hippocampi were dissected from C57black6 mice at 4-12 weeks postnatal, following the protocol described by Brewer (Brewer, G. J. (1997). “Isolation and culture of adult rat hippocampal neurons.” Journal of Neuroscience Methods 71(2): 143-155). The following is a brief summary of the procedure. Mice were asphyxiated with CO2 then decapitated. The brain was rapidly removed, then placed into ice-cold HABG medium. The recipe for HABG medium was: HibernateA supplemented with 2% B27 and 0.5 mM Glutamax (all reagents from Life Technologies). Hippocampi were micro-dissected from the brains, then washed with HABG without calcium (Hibernate A minus Calcium, BrainBits; 2% B27, Life Technologies; 0.5 mM glutamax, Life Technologies).
The hippocampi were then transferred to HABG without calcium, supplemented with 2 mg/mL papain (Worthington Biochemical). They were incubated at 30° C. on a roller for 40 min, then gently triturated with a fire-polished glass pipette. The supernatant containing dissociated neurons was collected, then centrifuged for 2 min at 200 g. The cell pellet was collected, and then resuspended in 8 mL of HABG. Live cells were counted, then plated onto 12 mm glass coverslips in HABG (2 mL) in 24-well plates at a density of 50-100 cells per coverslip. These cells were maintained at room temperature until use.
Whole-cell electrophysiology was performed using 1.5 mm diameter glass capillary tubes (World Precision Instruments TW150-4), pulled to a fine tip with a Sutter P-97 micropipette puller. The intracellular buffer was 90 mM KF, 30 mM KCl, 10 mM HEPES, and 5 mM EGTA, pH 7.4, 290 mOs. The extracellular buffer was 135 mM NaCl, 4 mM KCl, 2 mM CaCl2), 1 mM MgCl2, 5 mM glucose, 10 mM HEPES, pH 7.4, 300 mOs. The open-tip resistances of the micropipettes using these solutions were 2-4MΩ. Whole-cell recordings of neuron cell bodies were performed in voltage-clamp mode using an Axon Axopatch 200B amplifier. Whole-cell current was measured holding the interior of the cell at −60 mV, using a 5 kHz lowpass filter. The cells were continuously perfused through 7 mm square glass barrels using a solenoid-controlled solution switching device (Warner Instruments, PF-77B). The peak current in response to a 500 ms exposure to 10 mM glutamate every 5 seconds was measured, before and after exposure to test compound.
For analysis, the mean peak current of 5 traces in the presence of test compound was divided by the mean peak current of 5 traces prior to the addition of test compound. Compounds were tested at concentrations at least ten times higher than their estimated potency in the calcium flux assay, in order to ensure near-saturating occupancy of the receptor.
The table below summarizes the results of this electrophysiological assay. Peak current (% control) is mean of the peak response to glutamate in the presence of the indicated compound, normalized to the peak response to glutamate in the absence of test compound. N is the number of neurons tested. The compounds were tested at concentrations noted below in Table 5. At the said tested concentrations, the peak response to glutamate was reduced compared to controls for all tested compounds.

[2] = biological target: TARP γ8 dependent AMPA receptor (GluA1o-g8 fusion channel) (Homo sapiens (Human), UniProt P42261+Q8WXS5); experiment: Calcium flux assay (FLIPR), HEK293 cells expressing GRIA1o-CACNG8 fusion; type: cell-based; details: inhibition of calcium flux after 15 μM glutamate; for IC50: read-out: GluR1-γ8 pIC50 (converted)
Outline: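 Stable HEK293 clone expressing GluA1o-γ8 fusion (1:1 stoichiometry), loaded with Calcium-5/6 dye plus test compound; glutamate-evoked fluorescence normalized to control wells. Concentration-response fitted to four-parameter logistic, midpoint taken as inhibitory potency.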

TARP γ8 dependent AMPA receptor (GluA1o-g8 fusion channel), sequence (P42261 other isoform, or with tags, fused parts or gaps): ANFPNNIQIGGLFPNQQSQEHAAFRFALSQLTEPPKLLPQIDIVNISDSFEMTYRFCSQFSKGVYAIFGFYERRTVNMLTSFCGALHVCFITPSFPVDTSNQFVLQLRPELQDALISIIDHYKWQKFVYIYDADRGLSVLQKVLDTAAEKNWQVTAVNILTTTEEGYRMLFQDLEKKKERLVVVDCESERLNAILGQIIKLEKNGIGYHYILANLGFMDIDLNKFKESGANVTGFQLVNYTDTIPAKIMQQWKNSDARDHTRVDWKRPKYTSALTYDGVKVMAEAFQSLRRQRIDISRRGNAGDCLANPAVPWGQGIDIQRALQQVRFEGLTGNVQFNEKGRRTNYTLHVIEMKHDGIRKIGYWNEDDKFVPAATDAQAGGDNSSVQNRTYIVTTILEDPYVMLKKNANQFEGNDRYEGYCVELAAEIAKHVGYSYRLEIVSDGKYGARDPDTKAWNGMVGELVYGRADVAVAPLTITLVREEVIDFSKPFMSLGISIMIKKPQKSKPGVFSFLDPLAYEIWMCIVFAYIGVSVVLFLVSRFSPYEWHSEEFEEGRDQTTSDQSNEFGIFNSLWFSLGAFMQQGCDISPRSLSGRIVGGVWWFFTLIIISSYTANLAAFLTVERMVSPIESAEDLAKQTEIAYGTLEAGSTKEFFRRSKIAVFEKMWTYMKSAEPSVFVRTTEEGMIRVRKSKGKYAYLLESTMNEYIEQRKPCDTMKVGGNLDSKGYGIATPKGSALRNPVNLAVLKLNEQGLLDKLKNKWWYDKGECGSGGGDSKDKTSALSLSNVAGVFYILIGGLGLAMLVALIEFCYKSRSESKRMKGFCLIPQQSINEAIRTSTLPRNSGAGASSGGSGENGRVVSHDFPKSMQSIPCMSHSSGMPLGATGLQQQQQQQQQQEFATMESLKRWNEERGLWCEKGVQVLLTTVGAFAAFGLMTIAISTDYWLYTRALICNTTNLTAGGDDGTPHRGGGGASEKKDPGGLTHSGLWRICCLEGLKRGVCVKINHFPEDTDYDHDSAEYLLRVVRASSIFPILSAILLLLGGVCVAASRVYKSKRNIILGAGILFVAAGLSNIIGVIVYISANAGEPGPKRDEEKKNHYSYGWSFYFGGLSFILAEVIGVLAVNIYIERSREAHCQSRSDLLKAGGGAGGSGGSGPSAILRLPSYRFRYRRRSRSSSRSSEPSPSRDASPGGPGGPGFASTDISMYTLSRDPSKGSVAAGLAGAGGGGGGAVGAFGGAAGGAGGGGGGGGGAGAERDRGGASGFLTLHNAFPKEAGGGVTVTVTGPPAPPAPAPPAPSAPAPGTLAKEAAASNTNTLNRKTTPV

| Compound | peak current (% control) ([1]; 10 μM compound) | GluR1-γ8 pIC50 [2] | peak current (% control) ([1]; 1 μM compound) | IC50 [2] |
| --- | --- | --- | --- | --- |
| Cc1cccc(C)c1-c1ccc2[nH]c(=O)[nH]c2c1 [Example 2, 5-(2,6-Dimethylphenyl)-1,3-dihydrobenzimidazol-2-one] | 70% | 6.8 | – | – |
| Cc1cccc(Cl)c1-c1ccc2[nH]c(=O)[nH]c2c1 [Example 36, 5-(2-Chloro-6-methyl-phenyl)-1,3-dihydrobenzimidazol-2-one] | – | – | 72% | 0.0631 µM |
| O=c1[nH]c2ccc(-c3c(Cl)ccc(Cl)c3Cl)cc2[nH]1 [Example 66, 5-(2,3,6-Trichlorophenyl)-1,3-dihydrobenzimidazol-2-one] | – | – | 86% | 0.01 µM |
| O=c1[nH]c2ccc(-c3c(Cl)cccc3C3CC3)cc2[nH]1 [Example 160, 5-(2-Chloro-6-cyclopropyl-phenyl)-1,3-dihydrobenzimidazol-2-one] | – | 8.2 | 70% | – |
| N#CCc1cccc(Cl)c1-c1ccc2[nH]c(=O)[nH]c2c1 [Example 124, 2-[3-Chloro-2-(2-oxo-1,3-dihydrobenzimidazol-5-yl)phenyl]acetonitrile] | – | – | 63% | 0.0126 µM |
| COc1cccc(OCC(C)C)c1-c1ccc2[nH]c(=O)[nH]c2c1 [Example 14, 5-(2-Isobutoxy-6-methoxy-phenyl)-1,3-dihydrobenzimidazol-2-one] | – | – | 69% | 0.0316 µM |
| O=c1[nH]c2ccc(-c3c(Cl)cccc3OC(F)(F)F)cc2[nH]1 [Example 31, 5-[2-Chloro-6-(trifluoromethoxy)phenyl]-1,3-dihydrobenzimidazol-2-one] | – | – | 61% | – |
| N#CCc1cccc(OC(F)(F)F)c1-c1ccc2[nH]c(=O)[nH]c2c1 [Example 123] | – | – | 59% | 0.0158 µM |
| O=c1[nH]c2ccc(-c3cccc(CN4CCOC(C(F)(F)F)C4)c3Cl)cc2[nH]1 (racemic) [Example 144, (±)-5-[2-Chloro-3-[[2-(trifluoromethyl)morpholin-4-yl]methyl]phenyl]-1,3-dihydrobenzimidazol-2-one] | – | – | – | 0.126 µM |
| O=c1[nH]c2ccc(-c3c(Cl)cccc3OC3CC3)cc2[nH]1 [Example 90, 5-[2-Chloro-6-(cyclopropoxy)phenyl]-1,3-dihydrobenzimidazol-2-one] | – | – | – | 0.251 µM |
| O=c1[nH]c2ccc(-c3c(OCC4CC4)cccc3OC(F)(F)F)cc2[nH]1 [Example 89, 5-[2-(Cyclopropylmethoxy)-6-(trifluoromethoxy)phenyl]-1,3-dihydrobenzimidazol-2-one] | – | – | – | 0.00398 µM |
